The target of assay [1] is T1, human sphingosine-1-phosphate receptor 1 (S1P1) (Homo sapiens, UniProt P21453). Nature of the assay: β-Arrestin2 recruitment assay (PathHunter), S1P1 CHO-K1 cells. It is filed as cell-based. To be noted: for Emax: efficacy normalized to maximum efficacy of fingolimod, read-out: hS1P1 B-arrestin2 SPAN; for EC50: β-arrestin2 recruitment, read-out: hS1P1 B-arrestin2 pEC50 (converted). A digest of the protocol:
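Agonist-driven β-arrestin2 recruitment measured by β-galactosidase complementation after 60 min compound exposure at 37 °C and 1 h detection at room temperature. Cells: stable CHO-K1 line expressing tagged human S1P1 with EA-β-arrestin2, plated the night before. Data expressed relative to fingolimod.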
In general terms: Recruitment of arrestin is a read-out of receptor activation apart from second messengers.
Target sequence in this assay (P21453 whole entry): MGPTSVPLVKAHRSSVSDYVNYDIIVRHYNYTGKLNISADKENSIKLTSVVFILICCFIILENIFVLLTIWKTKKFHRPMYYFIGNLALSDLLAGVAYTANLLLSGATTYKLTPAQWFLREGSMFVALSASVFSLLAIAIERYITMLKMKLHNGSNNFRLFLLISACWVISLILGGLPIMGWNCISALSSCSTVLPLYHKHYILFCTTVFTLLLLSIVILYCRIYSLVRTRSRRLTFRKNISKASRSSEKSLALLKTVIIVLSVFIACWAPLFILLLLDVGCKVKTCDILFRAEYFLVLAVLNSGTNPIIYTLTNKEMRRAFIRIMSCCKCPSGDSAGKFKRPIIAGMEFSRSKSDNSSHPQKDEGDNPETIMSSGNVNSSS
Target sequence in this assay (P32121 whole entry partner): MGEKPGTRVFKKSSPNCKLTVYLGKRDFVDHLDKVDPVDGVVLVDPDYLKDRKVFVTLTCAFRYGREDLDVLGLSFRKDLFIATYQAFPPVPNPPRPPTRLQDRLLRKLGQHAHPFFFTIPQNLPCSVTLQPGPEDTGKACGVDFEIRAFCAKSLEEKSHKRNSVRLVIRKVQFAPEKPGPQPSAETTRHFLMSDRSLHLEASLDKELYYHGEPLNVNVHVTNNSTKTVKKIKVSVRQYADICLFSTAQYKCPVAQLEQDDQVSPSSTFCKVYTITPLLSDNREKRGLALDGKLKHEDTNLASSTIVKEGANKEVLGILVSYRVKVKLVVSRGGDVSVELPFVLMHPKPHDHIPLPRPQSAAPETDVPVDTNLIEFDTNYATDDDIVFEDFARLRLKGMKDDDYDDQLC

Assay [2] deals with T1, human sphingosine-1-phosphate receptor 1 (S1P1). Kind of assay: Inhibition of cAMP production (HTRF cAMP HiRange), S1P1 CHO-K1 cells. The format is cell-based. The settings on record: for Emax: CHO-K1, efficacy normalized to maximum efficacy of fingolimod, read-out: hS1P1 CAMP SPAN; for EC50: read-out: hS1P1 CAMP pEC50 (converted). A digest of the protocol:
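Intracellular cAMP changes read by TR-FRET (HTRF HiRange, 1 h room temperature) after 30 min compound exposure at 37 °C. Cells: overnight-plated CHO-K1 stably expressing tagged human S1P1 with EA-β-arrestin2. Responses normalized to fingolimod.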
Target sequence in this assay (P21453 whole entry): as the sequence (P21453 whole entry) above
For orientation: Changes in cAMP serve as a functional read-out for many G protein-coupled receptors.

[3] abbreviates: CHO-K1, β-arrestin2 recruitment.
Where [4] appears, read: inhibition of cAMP production, potency.
The mark [5] stands for this setting: inhibition of cAMP production, S1P1.

For the molecule `COc1ccccc1-c1nnc(-c2ccc3c(c2)CCC(=O)N3)o1` [Compound 341, 6-[5-(2-methoxyphenyl)-1,3,4-oxadiazol-2-yl]-1,2,3,4-tetrahydro-quinolin-2-one], the Emax in assay [1] (setting [3]) and in assay [2] (inhibition of cAMP production) was less than 75% each time. For the same molecule, the EC50 is greater than 10 µM in assay [1] (potency) and greater than 0.316 µM in assay [2] (setting [4]).

Turning to `COc1ccccc1-c1noc(-c2cnc3c(c2)nnn3C(C)C)n1` [Compound 383, 3-(2-methoxyphenyl)-5-[3-(propan-2-yl)-3H-[1,2,3]triazolo[4,5-b]pyridin-6-yl]-1,2,4-oxadiazole], the Emax in assay [1] (CHO-K1) and in assay [2] was greater than 75% in each case. Besides, the EC50 was less than 10 µM in assay [1] (S1P1) and less than 0.316 µM in assay [2] (setting [5]).

For `O=C1CCc2cc(-c3nc(-c4cccnc4)no3)ccc2N1` [Compound 386, 6-[3-(pyridin-3-yl)-1,2,4-oxadiazol-5-yl]-1,2,3,4-tetrahydro-quinolin-2-one], the Emax in assay [1] (CHO-K1) is less than 75%; in assay [2] it was greater than 75%. In addition, the EC50 in assay [1] (S1P1) is greater than 10 µM; in assay [2] (setting [5]), greater than 0.316 µM.

For `COc1ccccc1-c1nnc(-c2ccc3c(c2)nnn3C(C)C)s1` [Compound 144, 5-[5-(2-methoxyphenyl)-1,3,4-thiadiazol-2-yl]-1-(propan-2-yl)-1H-1,2,3-benzotriazole], the results for the Emax in assay [1] (setting [3]) and in assay [2] (inhibition of cAMP production) were less than 75% and greater than 75%, respectively. Besides, the figures for the EC50 in assay [1] (potency) and in assay [2] (setting [4]) were less than 10 µM and greater than 0.316 µM, respectively.

Turning to `CC(C)(CO)Cn1nnc2cc(-c3noc(-c4ccncc4C(F)(F)F)n3)ccc21` [Compound 528, 2,2-dimethyl-3-(5-(5-(3-(trifluoro-methyl)pyridin-4-yl)-1,2,4-oxadiazol-3-yl)-1H-benzo[d][1,2,3]triazol-1-yl)propan-1-ol], the values for the Emax in assay [1] (CHO-K1) and in assay [2] were less than 75% and greater than 75%, respectively. Besides, the EC50 in assay [1] (S1P1) was greater than 10 µM; in assay [2] (setting [5]), greater than 0.316 µM.

As for `CC(C)(CO)Cn1nnc2cc(-c3noc(-c4ccccc4Cl)n3)ccc21` [Compound 526, 3-(5-(5-(2-chloro-phenyl)-1,2,4-oxadiazol-3-yl)-1H-benzo[d][1,2,3]triazol-1-yl)-2,2-dimethylpropan-1-ol], the Emax in assay [1] (CHO-K1) and in assay [2] was greater than 75% each time. For the same molecule, the EC50 in assay [1] (S1P1) is greater than 10 µM; in assay [2] (setting [5]) it was greater than 0.316 µM.

Regarding `CC(C)n1nnc2cc(-c3noc(-c4cccc5c4CCC5O)n3)ccc21` (stereo not shown) [Compound 636, 4-{3-[1-(propan-2-yl)-1H-1,2,3-benzotriazol-5-yl]-1,2,4-oxadiazol-5-yl}-2,3-dihydro-1H-inden-1-ol], the Emax in assay [1] (CHO-K1) and in assay [2] was greater than 75% throughout. In addition, the EC50 was less than 10 µM in assay [1] (S1P1) and less than 0.316 µM in assay [2] (setting [5]).

Take `CCC1(CC)CC(=O)c2cc(-c3nc(-c4ccnc(NC(C)=O)c4)no3)ccc2O1` [Compound 512, N-(4-(5-(2,2-diethyl-4-oxochroman-6-yl)-1,2,4-oxadiazol-3-yl)pyridin-2-yl)acetamide]: the Emax in assay [1] (CHO-K1) was less than 75%; in assay [2], greater than 75%. The EC50 in assay [1] (S1P1) was less than 10 µM; in assay [2] (setting [5]) it was less than 0.316 µM.

For the molecule `OCCCn1nnc2cc(-c3noc(-c4ccccc4Br)n3)ccc21` [Compound 24, 3-(5-(5-(2-bromophenyl)-1,2,4-oxadiazol-3-yl)-1H-benzo[d][1,2,3]triazol-1-yl)propan-1-ol], the Emax in assay [1] (setting [3]) was less than 75%; in assay [2] (inhibition of cAMP production) it was greater than 75%. Also, the figures for the EC50 in assay [1] (potency) and in assay [2] (setting [4]) were greater than 10 µM and greater than 0.316 µM, respectively.

`COc1cnc(-c2nc(-c3ccc4c(c3)nnn4C(C)C)no2)cn1` [Compound 51, 3-(1-isopropyl-1H-benzo[d][1,2,3]triazol-5-yl)-5-(5-methoxypyrazin-2-yl)-1,2,4-oxadiazole]: the Emax in assay [1] (setting [3]) and in assay [2] (inhibition of cAMP production) was less than 75% in each case. Moreover, the results for the EC50 in assay [1] (potency) and in assay [2] (setting [4]) were greater than 10 µM and greater than 0.316 µM, respectively.

The record behind these values is patent US20230114241A1, “METHODS OF TREATING EPILEPSY USING THE SAME” (Trevena, Inc., priority 2019, published 2023).
